Measurements published in patent US20060122153A1, “Antineoplastic ether lipid compounds with modifications at the sn-2 carbon” (priority 2003, published 2006).
Read-outs that look alike come from different tables or passages of the source.

Key:
[1] = tested on: DEVDase activity (Caspase 3) in Jurkat T cells; assay: DEVDase activity in Jurkat T cells; type: cell-based; details: for % L-ET18OCH3 (DEVDase, 6 hrs): Jurkat T cells; for DEVDase activity compared to ET-18-OCH3 (in words): Jurkat T cell line
Protocol: Suspension cells were seeded at density 3.2×10^5 cells per mL in RPMI-1640 medium (Bio-Whittaker) supplemented with 10% heat inactivated FBS (Bio-Whittaker). Cells were pre-incubated overnight prior to treatment with the ether lipid compounds of the invention. At treatment time cell density was 5×10^5 cells per mL. Cells were incubated with the ether lipid compounds of the invention for various periods of time, usually 6 hours. Cells were collected, washed with 1×DPBS and resuspended in 110 μl of Buffer A (10 mM BEPES-KOH, pH 7.4, 2 mM EDTA, 0.1% CHAPS, 5 mM DTT, 1:100 dilution of protease inhibitors cocktail (Sigma)-DTT and protease inhibitors should be added just before use). After 10 min incubation on ice in order to lyse cells, samples were frozen on dry ice/ethanol and kept at −20° C. until analysis.
At the time of analysis of DEVDase activity frozen pellets were kept on ice until thawed and after vigorous vortexing samples were centrifuged at 14,000 rpm for 6 min.; Supernatant was transferred into another tube and 2 μl, in triplicates, were used for protein measurement using Bradford reagent (Bio-Rad).
Measurement of DEVDase activity was carried out in 100 μl volume, where 10 μg of protein was delivered in 50 μl of Buffer A and 40 μM of substrate Ac-DEVD-AMC was also delivered in 50 μl of Buffer A. All measurements were done in triplicates. Reaction was carried out for 1 hour and generation of fluorescent product of reaction (aminomethylcoumarin) was measured by reading fluorescence at 1em 460 nm (1ex 360 nm). Changes in DEVDase activity were calculated after subtraction of background fluorescence of substrate incubated without proteins, and were expressed as percent of control (DEVDase activity in untreated cells). Average of DEVDase activity, calculated from few independent experiments, was used to calculate percent of L-ether lipid-induced DEVDase activity.

WI38 = details: for GI50: WI38 normal human fibroblast cell line, 3 days
Excerpt: The following cell lines were selected from the cell bank for screening and GI50 studies: MCF-7: human breast tumor, MCF-7/ADR: MCF-7 adriamycin resistant subline, HT-29: human colon carcinoma, A-549: human non-small cell lung cancer, NIH-3T3: mouse Swiss embryo fibroblast and WI-38: human lung fibroblast, SKMEL-28: human melanoma, Lewis Lung: mouse lung carcinoma, DU-145: prostate carcinoma, B16F10: mouse melanoma, L1210: murine lymphocytic leukemia, P-388: murine leukemia, U-937: human histolytic lymphoma. Except HT-29, WI-38, NIH-3T3 and Lewis Lung which were obtained from the American Type Culture Collection (Rockville, Md.) all the other cell lines were obtained from National Cancer Institute—Frederick Research Facility (Frederick, Md.). All the cell lines were grown in RPMI-1640 medium containing 10% fetal bovine serum (FBS) except WI-38 and DU-145 which were grown in EMEM+10% FBS at 37° C., 5% CO2 and 100% humidity and NIH-3T3, Lewis Lung, B16F10 and L1210 which were grown in DMEM containing 10% FBS (10% HS for L1210). All the adherent cell lines were detached from the culture flasks by addition of 2-3 ml of 0.05% trypsin-EDTA. Thereafter, trypsin was inactivated by addition of 10 mL of 10% serum-containing RPMI-1640 medium. Cells were separated into a single-cell suspension by gentle pipetting action. Depending on the cell type, […] to 10,000 cells were plated onto 96-well plates a day prior to the drug treatment, in a volume of 100 μl per well.
The test compounds were made in-house and the compounds were dissolved PBS or saline at a stock concentration of approximately 20 mM, which is 400 times the desired final maximum test concentration. The stock solutions were then diluted with complete medium to twice the desired final concentration. 100 μl aliquots of each dilution was then added to the designated wells. After 3 days of incubation, cell growth was determined.
The SRB assay was performed as described by Monks, A., Scudiero, D., Skehan, P., Shoemaker, R., Paull, K., Vistica, D., Hose, C., Langley, J., Cronise, P., and Vaigro-Wolff, A. Feasibility of a high-flux anticancer drug screen using a diverse panel of cultured human tumo-r cell lines. J Natl Cancer Inst, 83: 757-766, 1991 with minor modifications. Following drug treatment, cells were fixed with 50 μl of cold 50% (wt/vol) trichloroacetic acid (TCA) for 60 minutes at 4° C. The supernatant was discarded, and the plates were washed six times with deionized water and then air dried. The precipitate was stained with 100 μl SRB solution (0.4% wt/vol in 1% acetic acid) for 10 minutes at room temperature, and free SRB was removed by washing three times with 1% acetic acid, and the plates were then air dried. Bound SRB was solubilized with Tris buffer (10 mM), and the ODs were read using an automated plate reader (Bio-Rad, Model 3550-UV) at 490 nm. Background values were subtracted from the test data, and the data was calculated as a % of control. […] Percentage growth was calculated as described by, Peters, A. C., Ahmad, I., Janoff, A. S., Pushkareva, M. Y., and Mayhew, E. Growth Inhibitory effects of liposome-associated 1-o-octadecyl-2-o-methyl-sn-glycero-3-phosphocholine. Lipids, 32:1045-1054, 1997. The raw optical density data Was imported into an Excel spreadsheet to determine dose responses. […] By varying drug concentration,-dose response curves were generated and the GI-50 values were calculated. The GI50 values for each experiment were calculated using data obtained from three duplicate wells on two separate plates.
For growth inhibitory evaluation, we used five human tumor cell lines (U937; HT29; A549; MCF7; MCF7/ADR) and two normal fibroblast cell lines (NIH-3T3, murine; WI-38, human).

Q: What does the source list for `CCCCCCCCCCCCCCCCCCOC[C@@H](COP(=O)([O-])OCC[N+](C)(C)C)OS(C)(=O)=O` [1a′S]?
A: % L-ET18OCH3 (DEVDase, 6 hrs) ([1]; 10 μM ether lipid): 58.9 ± 9.1%; % L-ET18OCH3 (DEVDase, 6 hrs) ([1]; 20 μM ether lipid): 55.5 ± 8.3%; % L-ET18OCH3 (DEVDase, 6 hrs) ([1]; 30 μM ether lipid): 61.3 ± 9.1%; DEVDase activity compared to ET-18-OCH3 (in words) [1]: less DEVDase activity than ET-18-OCH3; cytotoxicity to normal human fibroblast as compared to ET-18-OCH3 (in words) (WI38): less cytotoxic; GI50 (WI38): 16.3 µM

Q: What does the source list for `CCCCCCCCCCCCCCCCCCOCC(COP(=O)([O-])OCC[N+](C)(C)C)OS(C)(=O)=O` (stereo not shown) [Compound 1aR]?
A: % L-ET18OCH3 (DEVDase, 6 hrs) ([1]; 10 μM ether lipid): 56.6 ± 8.3%; % L-ET18OCH3 (DEVDase, 6 hrs) ([1]; 20 μM ether lipid): 52.4 ± 8.6%; % L-ET18OCH3 (DEVDase, 6 hrs) ([1]; 30 μM ether lipid): 51.6 ± 8.1%; DEVDase activity compared to ET-18-OCH3 (in words) [1]: less DEVDase activity than ET-18-OCH3; GI50 (WI38): 40.9 µM; cytotoxicity to normal human fibroblast as compared to ET-18-OCH3 (in words) (WI38; WI-38): less cytotoxic

Q: What does the source list for `CCCCCCCCCCCCCCCCCCOCC(COP(=O)([O-])OCC[N+](C)(C)C)OC` [D-ET18OCH3, 1-O-octadecyl-2-O-methyl-glycerophosphocholine, reference compound]?
A: % L-ET18OCH3 (DEVDase, 6 hrs) ([1]; 10 μM ether lipid): 79.3 ± 9.7%; % L-ET18OCH3 (DEVDase, 6 hrs) ([1]; 20 μM ether lipid): 89.2 ± 12.2%; % L-ET18OCH3 (DEVDase, 6 hrs) ([1]; 30 μM ether lipid): 92.1 ± 11.8%; GI50 (WI38): 10 to 13.5 µM
